Assays:
TGFβRI kinase ALK5 = TGFβRI kinase ALK5 (Homo sapiens (Human), UniProt P36897); assay: Inhibition of TGFβRI kinase ALK5 activity (TGFβRI kinase assay kit, ADP-Glo); format: biochemical; settings: ATP 50 μM; read-out: IC50 of inhibition effect on TGFβRI kinase ALK5 activity
Procedure: The inhibition effect of TGFβRI kinase activity in vitro was determined by the following method.
The inhibition effect of the compounds of the present invention on TGFβRI kinase ALK5 activity was determined by the following experimental method:
(§1) TGFβRI kinase assay kit (V4093, Promega) was used to assay enzyme activity. 2 μl of enzyme solution (the final concentration of enzyme in the reaction system was 2 ng/μL) formulated with reaction buffer (40 mM Tris pH 7.5, 20 mM MgCl2, 0.1 mg/ml BSA), 1 μl of a 3-fold gradient dilution of the compounds dissolved in 5% DMSO, and 2 μl of a mixed solution of ATP and TGFβRI substrate peptide (the final concentration of ATP was 50 μM, and the final concentration of substrate was 0.2 μg/μL) were added successively to a 384-well plate (4514, Corning). After reaction at 27° C. for 2.5 hours, 5 μl of ADP-Glo solution in the kit was added to each well, then the plate was placed at 27° C. for 40 minutes. 10 μl of kinase assay reagent was then added to each well, then the plate was placed at 27° C. for 30 minutes. The chemiluminescence signal values were measured with a Victor 3 (PerkinElmer) multi-function microplate reader. The IC50 values of the compounds for enzyme inhibition were calculated using Graphpad prism software based on each concentration of the compound and the corresponding signal value thereof.

[1] = biological target: recombinant human VEGFR2 enzyme (Homo sapiens (Human), UniProt P35968); assay: Inhibition of VEGFR2 kinase activity (Z'-LYTE Kinase Assay Kit); format: biochemical; settings: ATP 50 μM; read-out: IC50 of inhibition effect on VEGFR2 kinase activity
recombinant human VEGFR2 enzyme, sequence (P35968 20-1356): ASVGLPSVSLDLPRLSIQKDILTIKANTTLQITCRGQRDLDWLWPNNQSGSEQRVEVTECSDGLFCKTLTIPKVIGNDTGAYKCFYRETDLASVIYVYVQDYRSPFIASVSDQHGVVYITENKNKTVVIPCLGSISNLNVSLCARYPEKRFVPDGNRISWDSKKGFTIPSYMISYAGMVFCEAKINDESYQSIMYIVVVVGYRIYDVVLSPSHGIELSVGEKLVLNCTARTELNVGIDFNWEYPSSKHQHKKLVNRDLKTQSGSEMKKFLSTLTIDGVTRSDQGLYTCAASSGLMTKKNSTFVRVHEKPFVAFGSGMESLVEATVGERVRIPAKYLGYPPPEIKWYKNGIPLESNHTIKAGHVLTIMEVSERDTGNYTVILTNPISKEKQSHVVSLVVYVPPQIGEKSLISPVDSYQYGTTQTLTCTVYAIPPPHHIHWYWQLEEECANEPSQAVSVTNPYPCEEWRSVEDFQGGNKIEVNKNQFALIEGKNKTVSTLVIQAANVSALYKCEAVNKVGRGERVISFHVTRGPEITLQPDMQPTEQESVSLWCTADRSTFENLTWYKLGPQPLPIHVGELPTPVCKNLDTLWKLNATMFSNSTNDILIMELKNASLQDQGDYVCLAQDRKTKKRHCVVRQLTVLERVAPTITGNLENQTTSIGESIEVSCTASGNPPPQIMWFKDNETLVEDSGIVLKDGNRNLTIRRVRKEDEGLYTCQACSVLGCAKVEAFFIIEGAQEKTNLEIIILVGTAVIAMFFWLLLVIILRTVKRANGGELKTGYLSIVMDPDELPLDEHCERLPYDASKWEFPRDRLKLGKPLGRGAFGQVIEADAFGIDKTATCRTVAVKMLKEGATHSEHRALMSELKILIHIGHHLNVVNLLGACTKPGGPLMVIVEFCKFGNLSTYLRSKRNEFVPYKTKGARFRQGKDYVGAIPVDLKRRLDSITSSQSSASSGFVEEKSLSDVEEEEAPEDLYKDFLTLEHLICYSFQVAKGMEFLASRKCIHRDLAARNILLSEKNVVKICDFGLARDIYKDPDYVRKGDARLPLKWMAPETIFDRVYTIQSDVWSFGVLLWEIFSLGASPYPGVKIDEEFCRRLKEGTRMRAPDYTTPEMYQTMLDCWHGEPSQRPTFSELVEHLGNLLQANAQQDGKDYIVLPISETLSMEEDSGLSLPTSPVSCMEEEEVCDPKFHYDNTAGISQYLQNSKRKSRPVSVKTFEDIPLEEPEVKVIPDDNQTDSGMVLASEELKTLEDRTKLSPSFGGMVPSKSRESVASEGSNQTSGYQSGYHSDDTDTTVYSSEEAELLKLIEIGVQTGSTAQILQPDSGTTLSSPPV
Procedure: The inhibition effect of VEGFR2 kinase activity in vitro was determined by the following method.
The inhibition effect of the compounds of the present invention on VEGFR2 kinase activity was determined by the following experimental method:
After reaction at 25° C. for 2 hours, 5 μL of detection reagent was added to each well. […] The IC50 values of the compounds for enzyme inhibition were calculated using Graphpad prism software based on each concentration of the compound and the corresponding signal value thereof.

[2] = tested on: Smad signaling pathway of TGFβRI; assay: Inhibition of Smad signaling pathway of TGFβRI (3TP-lux luciferase reporter in HepG2 cell); format: cell-based; settings: Homo sapiens; HepG2 cell, 3TP-lux plasmid, 18 hours; read-out: IC50 on the inhibition of Smad signaling pathway of TGFβRI
Procedure: The inhibition effect of the compounds of the present invention on Smad signaling pathway of TGFβRI was determined by the following in vitro test.
The inhibition effect of the compounds of the present invention on Smad signaling pathway of TGFβRI was determined by the following experimental method:
The seeding density is 2.5×10^4 cells/well. The cells were incubated overnight at 37° C., 5% CO2. Each well was replaced with fresh EMEM medium containing 10% FBS. […] The cells were further incubated for 24 hours at 37° C., 5% CO2. Each well was replaced with 90 μL of EMEM medium containing 0.5% FBS, then the cells were starved for 6 hours. The compounds were formulated as a 20 mM stock solution, which was diluted in gradient to a 400× concentration with 100% DMSO, and further 40-fold diluted with EMEM containing 0.5% FBS. The cell culture plate was taken out, then 10 μl of diluted compound or control (0.25% DMSO) was added to each well respectively. The plate was shaken gently, then incubated for 18 hours in an incubator at 37° C., 5% CO2. Finally, 100 μl of detection reagent ONE-Glo™ Luciferase Assay (E6110, Promega) was added to each well, and the plate was placed in dark at room temperature for 10 minutes. The chemiluminescence signal values were measured with a Victor 3.0 (PerkinElmer). The IC50 values of the compounds were calculated using Graphpad Prism software based on each concentration of the compound and the corresponding signal value thereof.

p38α kinase = p38α kinase (Homo sapiens (Human), UniProt Q16539); assay: Inhibition of p38α kinase activity (p38α kinase assay kit, ADP-Glo); format: biochemical; settings: ATP 50 μM; read-out: IC50 of inhibition effect on p38α kinase activity
p38α kinase, sequence (Q16539 whole entry): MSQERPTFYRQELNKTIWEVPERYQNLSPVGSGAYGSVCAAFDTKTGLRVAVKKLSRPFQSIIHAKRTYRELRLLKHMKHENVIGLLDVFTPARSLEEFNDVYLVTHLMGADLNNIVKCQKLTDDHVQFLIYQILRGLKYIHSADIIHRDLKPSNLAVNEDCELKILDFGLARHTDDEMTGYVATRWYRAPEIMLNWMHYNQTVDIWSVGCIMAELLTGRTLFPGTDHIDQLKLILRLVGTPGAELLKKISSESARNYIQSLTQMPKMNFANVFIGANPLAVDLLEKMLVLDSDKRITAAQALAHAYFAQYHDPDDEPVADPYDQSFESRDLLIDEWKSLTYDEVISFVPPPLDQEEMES
Procedure: The inhibition of p38α kinase activity in vitro was determined by the following method.
The inhibition effect of the compounds of the present invention on p38a kinase activity was determined by the following experimental method:
as §1, with “p38α kinase” for “TGFβRI kinase”, “kit (V9591,” for “kit (V4093,”, “was 0.5” for “was 2”, “and p38” for “and TGFβRI”, “compounds on” for “compounds for”

NIH3T3 cell = assay: Inhibition of NIH3T3 cell proliferation (CellTiter-Glo); format: cell-based; settings: Mus musculus, 72 hours, 0.5% FBS
Procedure: The inhibition effect of the compounds of the present invention on NIH3T3 cell proliferation was determined by the following in vitro test.
The inhibition effect of the compounds of the present invention on NIH3T3 cell proliferation was determined by the following experimental method:
On a 96-well white plate with transparent bottom (3903, Corning), 100 μL of NIH3T3 cell (GNM6, Cell Bank of Typical Culture Collection Committee of Chinese Academy of Sciences) was seeded in a DMEM medium containing 10% FBS in each well. The seeding density is 2000 cells/well. The cells were incubated overnight at 37° C., 5% CO2. After overnight incubation, each well was replaced with 90 μL of DMEM medium containing 0.5% FBS. 10 μl of a 3-fold gradient dilution of the compounds with DMEM medium containing 0.5% FBS was then added, and the plate was incubated for 72 hours in a cell incubator at 37° C., 5% CO2. Finally, 50 μL of CellTiter-Glo (G7573, Promega) was added to each well. After incubation for 10 minutes at room temperature, the chemiluminescence signal values were measured with a Victor 3 microplate reader (PerkinElmer). The IC50 values of the compounds were calculated using Graphpad Prism software based on each concentration of the compound and the corresponding signal value thereof.

[3] = Pharmacokinetics assay in rats after intragastrical administration; format: in vivo; settings: both sexes, Sprague-Dawley, rat, plasma, po, SD rats, 2 mg/kg
Procedure: Rats were used as test animals. The drug concentration in plasma at different time points was determined by LC/MS/MS method after intragastrical administration of the compounds of Examples 1-1, 1-2, 2-1, 3-1, the compound with retention time of 6.631 minutes among Examples 9-1 and 9-2, and the compounds of Examples 33 and 39-1 to rats. The pharmacokinetic behavior of the compounds of the present invention was studied and evaluated in rats.
Compounds of Examples 1-1, 1-2, 2-1, 3-1, compound with retention time of 6.631 minutes among Examples 9-1 and 9-2, and compounds of Examples 33 and 39-1.
Twenty-eight healthy adult Sprague-Dawley (SD) rats (half male and half female) were purchased from SINO-BRITISH SIPPR/BK LAB. ANIMAL LTD., CO, with Certificate No.: SCXK (Shanghai) 2008-0016, and equally divided into 7 groups (4 rats per group).
A certain amount of the test compound was weighed, and added with 5% by volume of DMSO, 5% by volume of Tween 80, and 90% by volume of physiological saline were added to prepare a 0.2 mg/mL colorless, clear and transparent solution.
After an overnight fast, SD rats were administered intragastrically the test compounds at an administration dosage of 2.0 mg/kg and an administration volume of 10.0 mL/kg.
The rats were intragastrically administered the compounds of Examples 1-1, 1-2, 2-1, 3-1, the compound with retention time of 6.631 minutes among Examples 9-1 and 9-2, and the compounds of Examples 33 and 39-1.0.2 mL of blood was taken from the orbital sinus before administration and at 0.5, 1.0, 2.0, 4.0, 6.0, 8.0, 11.0 and 24.0 hours after administration. The samples were stored in heparinized tubes, and centrifuged for 10 minutes at 4° C. at 3,500 rpm to separate the blood plasma. The plasma samples were stored at −20° C. The rats were fed 2 hours after administration.
The content of the test compounds in the plasma of rats after intragastrical administration of the test compounds at different concentrations was determined: 25 μL of rat plasma at each time after administration was taken, added with 50 μL (100 ng/mL) of the internal standard solution of camptothecin and 175 μL of acetonitrile, shaken vertically for 5 minutes, and centrifuged for 10 minutes (4000 rpm). 3.0 μL of the supernatant was taken from the plasma samples for LC/MS/MS analysis.

TGFβRI kinase ALK5, sequence (P36897 34-503): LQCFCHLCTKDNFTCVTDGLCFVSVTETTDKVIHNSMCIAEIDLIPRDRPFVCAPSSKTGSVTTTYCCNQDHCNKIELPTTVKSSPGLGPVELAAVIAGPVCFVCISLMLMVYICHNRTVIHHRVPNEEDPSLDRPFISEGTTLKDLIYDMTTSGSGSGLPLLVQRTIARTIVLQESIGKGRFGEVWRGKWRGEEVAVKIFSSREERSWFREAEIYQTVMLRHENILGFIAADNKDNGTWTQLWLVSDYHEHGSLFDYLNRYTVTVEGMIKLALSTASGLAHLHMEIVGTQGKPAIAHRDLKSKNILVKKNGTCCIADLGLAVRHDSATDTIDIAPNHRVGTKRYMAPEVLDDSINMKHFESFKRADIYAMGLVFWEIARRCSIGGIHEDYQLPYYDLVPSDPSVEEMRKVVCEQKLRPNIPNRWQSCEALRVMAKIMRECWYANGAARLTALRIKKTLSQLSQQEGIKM

SMILES	IC50 [1] [nM]	IC50 (p38α kinase) [nM]	IC50 (TGFβRI kinase ALK5) [nM]	IC50 [2] [nM]	IC50 (NIH3T3 cell) [nM]	also measured
Cc1cccc(-c2nc3n(c2-c2ccnc(-c4ccc(S(C)(=O)=O)cc4)c2)[C@@H]2CC[C@H]3C2)n1 [Example 3-2, (5R,8S)-2-(6-Methylpyridin-2-yl)-3-(2-(4-(methylsulfonyl)phenyl)pyridin-4-yl)-5,6,7,8-tetrahydro-5,8-methanoimidazo[1,2-a]pyridine]	928	654	23	31	–	–
Cc1cccc(-c2nc3n(c2-c2cc4cnccc4s2)C2CCC3C2)n1 (stereo not shown) [Example 10, 2-(2-(6-Methylpyridin-2-yl)-5,6,7,8-tetrahydro-5,8-methanoimidazo[1,2-a]pyridin-3-yl) thieno[3,2-c]pyridine]	–	–	25	23	41	–
Cc1cccc(-c2nc3n(c2-c2ccc4ncnn4c2)C2CCC3C2)n1 (stereo not shown) [Example 11, 3-([1,2,4]Triazolo[1,5-a]pyridin-6-yl)-2-(6-methylpyridin-2-yl)-5,6,7,8-tetrahydro-5,8-methanoimidazo[1,2-a]pyridine]	–	–	16	26	37	–
Cc1cccc(-c2nn3c(c2-c2ccc4ncnn4c2)C2CCC3CC2)n1 [Example 38, 3-([1,2,4]Triazolo[1,5-a]pyridin-6-yl)-2-(6-methylpyridin-2-yl)-4,5,6,7-tetrahydro-4,7-ethanopyrazolo[1,5-a]pyridine]	–	–	9	11	33	–
NC(=O)c1ccnc2ccc(-c3c(-c4ccccn4)nc4n3[C@H]3CC[C@@H]4C3)cc12 [Example 45-1, 6-((5S,8R)-2-(Pyridin-2-yl)-5,6,7,8-tetrahydro-5,8-methanoimidazo[1,2-a]pyridin-3-yl) quinoline-4-carboxamide]	–	–	29	32	51	–

Further lines, with some results ahead:

IC50 [1] [nM]	IC50 (p38α kinase) [nM]	SMILES	IC50 (TGFβRI kinase ALK5) [nM]	IC50 [2] [nM]	IC50 (NIH3T3 cell) [nM]	also measured
–	454	Cc1cccc(-c2nc3n(c2-c2ccnc(-c4cnn(C)c4)c2)C2CCC3C2)n1 (stereo not shown) [Example 12, 3-(2-(1-Methyl-1H-pyrazol-4-yl)pyridin-4-yl)-2-(6-methylpyridin-2-yl)-5,6,7,8-tetrahydro-5,8-methanoimidazo[1,2-a]pyridine]	9	33	13	–
> 10000	–	Cc1cccc(-c2nc3n(c2-c2ccnc(NCCN4CCOCC4)c2)[C@H]2CC[C@@H]3C2)n1 [Example 16-1, 4-((5S,8R)-2-(6-Methylpyridin-2-yl)-5,6,7,8-tetrahydro-5,8-methanoimidazo[1,2-a]pyridin-3-yl)-N-(2-morpholinoethyl)pyridin-2-amine]	77	–	–	–
–	563	Cc1cccc(-c2nn3c(c2-c2ccnc(-c4ccc(S(C)(=O)=O)cc4)c2)C2CCC3CC2)n1 [Example 33, 2-(6-Methylpyridin-2-yl)-3-(2-(4-(methylsulfonyl)phenyl)pyridin-4-yl)-4,5,6,7-tetrahydro-4,7-ethanopyrazolo[1,5-a]pyridine]	34	87	–	Vd/F ([3]; read-out: Apparent distribution volume Vz/F): 16.4 ± 10.7 L/kg; AUC ([3]; read-out: Area under curve AUC): 228 ± 159 ng·h/mL; CL/F ([3]; read-out: Clearance CLz/F): 193 ± 95 mL/min/kg; half-life ([3]; read-out: Half-life T1/2 (converted)): 0.973 ± 0.3 h; Cmax ([3]; read-out: Plasma concentration Cmax): 178 ± 113 ng/mL; MRT ([3]; read-out: Residence time MRT): 1.2 ± 0.35 h
9740	7780	CS(=O)(=O)c1ccc(-c2cc(-c3c(-c4ccc(F)cn4)nc4n3[C@H]3CC[C@@H]4C3)ccn2)cc1 [Example 42-1, (5S,8R)-2-(5-Fluoropyridin-2-yl)-3-(2-(4-(methylsulfonyl)phenyl)pyridin-4-yl)-5,6,7,8-tetrahydro-5,8-methanoimidazo[1,2-a]pyridine]	–	31	–	–

— US10906905B2, “Five-membered heteroaryl ring bridged ring derivative, preparation method therefor and medical use thereof” (Jiangsu Hengrui Medicine Co., Ltd., priority 2016, dated 2021)
